Data: US6465496B1, “Torsemide polymorphs” (Teva Pharmaceutical Industries, Ltd., priority 1999, dated 2002)
Each block holds one compound with its values, some of them ahead of it.

Key:
Assay type in all cases: physicochemical
[1] = stability of the crystal form in an ethanol slurry; conditions: stirred at room temperature
Procedure: (§1) In another embodiment of the present invention, torsemide modification I may be made from torsemide modification II by reslurry in ethanol. By the process of the present invention, torsemide modification II is stirred at room temperature in ethanol for a time sufficient to induce the transformation of torsemide modification II to torsemide modification I. Preferably the mixture is stirred for 2 hours. Torsemide modification I is isolated upon filtering the mixture followed by drying under high vacuum at a temperature of about 40° C. to about 60° C. for a sufficient time to complete drying. Drying is complete upon reaching constant weight. It has been observed that torsemide modification I is stable in an ethanol slurry for at least 65 hours.
as §1, with “dimethyl formamide (DMF).” for “ethanol.”, “methods” for “process”, “DMF” for “ethanol”, “I.” for “I. Preferably the mixture is stirred for 2 hours.”, “It has been observed that torsemide modification I is stable in an ethanol slurry for at least 65 hours.” left out

[2] = pH at which torsemide begins to precipitate on acidifying the basified aqueous/alcohol solution; conditions: water/organic solvent (isopropanol or ethanol) solution, pH lowered with acid
Procedure: An organic solvent is then added to the torsemide solution with stirring. Suitable solvents include water soluble or partially water soluble alcohols such as propanol, isopropanol and ethanol. Preferably, the solvent is isopropanol or ethanol. The pH of the torsemide solution is then lowered by the addition of a suitable acid until the solution begins to become cloudy and torsemide Dupont Form 2 begins to precipitate. Torsemide begins to precipitate at about pH 6. Suitable acids include acetic acid, hydrochloric acid, sulfuric acid, mineral acids and the like. Acetic acid is preferred. Since torsemide is known to decompose at pH 3.0, the pH of the solution is preferably maintained at about 6±0.1 with a minimum pH of […] and a maximum pH of 7.5±0.5. Torsemide Dupont Form 2 is then isolated by filtration and drying to remove solvent.
An organic solvent is then added to the torsemide solution with stirring. Suitable solvents include water soluble or partially water soluble alcohols such as propanol, isopropanol and ethanol. Preferably, the solvent is isopropanol or ethanol. The pH of the torsemide solution is then lowered by the addition of a suitable acid until the solution begins to become cloudy and torsemide Dupont Form 2 solvent adduct begins to precipitate. Torsemide begins to precipitate at about pH 6. […]

[3] = solubility of amorphous torsemide compared with crystalline forms; conditions: compared with crystalline forms reported in U.S. Pat. No. 5,914,336, U.S. Pat. No. Re. 34,672 and WO 00/20395

time stable in an ethanol slurry [1]: at least 65 hours
SMILES: Cc1cccc(Nc2ccncc2S(=O)(=O)NC(=O)NC(C)C)c1 [torsemide modification I]

pH at which torsemide begins to precipitate [2]: about 6 pH
SMILES: Cc1cccc(Nc2ccncc2S(=O)(=O)NC(=O)NC(C)C)c1 [torsemide, 1-Isopropyl-3-[(4-m-toluidino-3-pyridyl)sulfonyl]urea]

SMILES: Cc1cccc(Nc2ccncc2S(=O)(=O)NC(=O)NC(C)C)c1 [amorphous torsemide]
solubility relative to crystalline forms of torsemide [3]: more soluble than crystalline forms of torsemide
